Measurements from PMC9188586, “Design, synthesis and evaluation of novel tetrahydropyridothienopyrimidin-ureas as cytotoxic and anti-angiogenic agents” (Scientific Reports, 2022).

Legend:
[1] = test system: SW480 (colon cancer); assay: MTT antiproliferative assay, SW480; format: cell-based
Experimental: (§1) Two series of new tetrahydropyridothienopyrimidines were evaluated for their cytotoxicity against a panel of cell lines, including MCF-7 (breast cancer), SW480 (colon cancer), PC-3 (prostate cancer), HEPG-2 (liver cancer) and HUVEC (human umbilical vein endothelial cell) using 3-(4,5-dimethyl- thiazol-2-yl)-2,5-diphenyltetrazolium bromide (MTT) assay. Sorafenib was used as a positive control. The cytotoxicity is expressed as the concentration that inhibits 50% of cell viability (IC50). […] The preliminary SAR is evaluated on the basis of cytotoxicity results of phenyl derivatives (11a–k) and pyridine derivatives (11l–11y).The mesomeric effect didn’t improve the cytotoxicity of compound 11d in the first series.
(§2) Cytotoxicity of the compounds was measured by detecting the ability of cells in transforming MTT into a purple formazan dye. The different cell lines were provided by the National Cell Bank of Iran (Pastor Institute, Tehran, Iran). The required materials and reagents were purchased from Sigma. After the cell culture in RPMI-1640 medium and DMEM containing 10% FBS (Gibco, Milano, Italy), the suspension of MCF-7 (7000) and other cells (5000) were poured into 96 well plates and incubated in a humidified incubator containing 5% CO2 at 37 °C for 24 h. Subsequently, a solution of the compounds in DMSO was added to these plates and incubated for 48 h. After incubation, the solution of 5% 3-(4,5-Dimethyl-2-thiazolyl)-2,5-diphenyl-2H-tetrazolium bromide (MTT) was added to all the wells and incubation was continued for another 4 h. The record of color intensity of the formazan solution was at 570 nm by Bio-Rad microplate reader (Model 680) which reflects the cell growth condition.

[2] = test system: MCF-7 (breast cancer); assay: MTT antiproliferative assay, MCF-7; format: cell-based
Experimental: as §1, §2

[3] = test system: HEPG-2 (liver cancer); assay: MTT antiproliferative assay, HEPG-2; format: cell-based
Experimental: as §1, §2

[4] = test system: PC-3 (prostate cancer); assay: MTT antiproliferative assay, PC-3; format: cell-based; conditions: 48 h incubation
Experimental: as §1, §2

[5] = test system: HUVEC (human umbilical vein endothelial cell); assay: MTT antiproliferative assay, HUVEC; format: cell-based; conditions: MTT assay, 48 h incubation
Experimental: as §1, §2

[6] = Homo sapiens, SW480, 48 h incubation
[7] = Homo sapiens, MCF7, 48 h incubation
[8] = Homo sapiens, HepG2, 48 h incubation

SMILES | IC50 [1, 6] [µM] | IC50 [2, 7] [µM] | IC50 [3, 8] [µM] | IC50 [4] [µM] | melting point [°C] | IC50 ([1]; 48 h incubation) [µM] | IC50 ([2]; 48 h incubation) [µM] | IC50 ([3]; 48 h incubation) [µM] | IC50 ([5]; Homo sapiens, HUVEC) [µM] | IC50 [5] [µM]
Cc1ccc(NC(=O)Nc2nnc(Sc3ncnc4sc5c(c34)CCN(Cc3ccncc3)C5)s2)cc1Cl [Compound 11w, 1-(3-chloro-4-methylphenyl)-3-(5-((7-(pyridin-4-ylmethyl)-5,6,7,8-tetrahydropyrido[4',3':4,5]thieno[2,3-d]pyrimidin-4-yl)thio)-1,3,4-thiadiazol-2-yl)urea] | 71.9 ± 1.1 | 6.8 ± 0.05 | 38.5 ± 0.42 | 9.42 ± 0.63 | 157 to 159 | – | – | – | 6.23 ± 0.03 | –
O=C(Nc1cccc(C(F)(F)F)c1)Nc1nnc(Sc2ncnc3sc4c(c23)CCN(Cc2ccncc2)C4)s1 [Compound 11x, 1-(5-((7-(pyridin-4-ylmethyl)-5,6,7,8-tetrahydropyrido[4',3':4,5]thieno[2,3-d]pyrimidin-4-yl)thio)-1,3,4-thiadiazol-2-yl)-3-(3-(trifluoromethyl)phenyl)urea] | 60.55 ± 0.41 | 9.36 ± 0.06 | 44.6 ± 0.52 | 32.9 ± 0.61 | 241 to 243 | – | – | – | 9.15 ± 0.02 | –
COc1cccc(NC(=O)Nc2nnc(Sc3ncnc4sc5c(c34)CCN(Cc3ccncc3)C5)s2)c1 [Compound 11o, 1-(3-methoxyphenyl)-3-(5-((7-(pyridin-4-ylmethyl)-5,6,7,8-tetrahydropyrido[4',3':4,5]thieno[2,3-d]pyrimidin-4-yl)thio)-1,3,4-thiadiazol-2-yl)urea] | 65.8 ± 0.28 | 14.63 ± 0.07 | 69.32 ± 0.52 | 33.6 ± 1.41 | 191 to 193 | – | – | – | 20.6 ± 0.5 | –
COc1ccc(NC(=O)Nc2nnc(Sc3ncnc4sc5c(c34)CCN(Cc3ccncc3)C5)s2)cc1 [Compound 11p, (4-Methoxyphenyl)-3-(5-((7-(pyridin-4-ylmethyl)-5,6,7,8-tetrahydropyrido[4',3':4,5]thieno[2,3-d]pyrimidin-4-yl)thio)-1,3,4-thiadiazol-2-yl)urea] | – | – | – | 43.5 ± 1.62 | – | 29.4 ± 1.01 | 3.72 ± 0.55 | 67.4 ± 0.33 | – | 2.86 ± 0.05
O=C(Nc1ccc(Cl)c(Cl)c1)Nc1nnc(Sc2ncnc3sc4c(c23)CCN(Cc2ccncc2)C4)s1 [Compound 11v, 1-(3,4-dichlorophenyl)-3-(5-((7-(pyridin-4-ylmethyl)-5,6,7,8-tetrahydropyrido[4',3':4,5]thieno[2,3-d]pyrimidin-4-yl)thio)-1,3,4-thiadiazol-2-yl)urea] | 67.7 ± 1.55 | 10.37 ± 0.03 | 26.4 ± 0.9 | 55.3 ± 1.82 | – | – | – | – | 68.4 ± 1.44 | –

Second part, led by results:

IC50 [1, 6] [µM] | IC50 [2, 7] [µM] | IC50 [3, 8] [µM] | IC50 [4] [µM] | melting point [°C] | IC50 ([1]; 48 h incubation) [µM] | IC50 ([2]; 48 h incubation) [µM] | IC50 ([3]; 48 h incubation) [µM] | SMILES | IC50 ([5]; Homo sapiens, HUVEC) [µM] | IC50 [5] [µM]
56.5 ± 1.28 | 62.4 ± 2.94 | 46.96 ± 0.35 | 41.6 ± 1.1 | – | – | – | – | O=C(Nc1ccc(Cl)cc1)Nc1nnc(Sc2ncnc3sc4c(c23)CCN(Cc2ccccc2)C4)s1 [Compound 11g, 1-(5-((7-benzyl-5,6,7,8-tetrahydropyrido[4',3':4,5]thieno[2,3-d]pyrimidin-4-yl)thio)-1,3,4-thiadiazol-2-yl)-3-(4-chlorophenyl)urea] | 27.29 ± 0.19 | –
45.1 ± 1.7 | 51.92 ± 0.47 | 43.92 ± 0.16 | 44 ± 1.52 | 280 to 282 | – | – | – | COc1ccc(NC(=O)Nc2nnc(Sc3ncnc4sc5c(c34)CCN(Cc3ccccc3)C5)s2)cc1 [Compound 11d, 1-(5-((7-benzyl-5,6,7,8-tetrahydropyrido[4',3':4,5]thieno[2,3-d]pyrimidin-4-yl)thio)-1,3,4-thiadiazol-2-yl)-3-(4-methoxyphenyl)urea] | 44.15 ± 0.22 | –
69.6 ± 1.88 | 50.8 ± 0.54 | 3.33 ± 0.07 | 41.8 ± 1.22 | – | – | – | – | Cc1ccc(NC(=O)Nc2nnc(Sc3ncnc4sc5c(c34)CCN(Cc3ccccc3)C5)s2)cc1Cl [Compound 11i, 1-(5-((7-benzyl-5,6,7,8-tetrahydropyrido[4',3':4,5]thieno[2,3-d]pyrimidin-4-yl)thio)-1,3,4-thiadiazol-2-yl)-3-(3-chloro-4-methylphenyl)urea] | 24.63 ± 0.22 | –
61.3 ± 2.02 | 45.04 ± 0.41 | 30.7 ± 0.44 | 41.4 ± 0.46 | 166 to 168 | – | – | – | O=C(Nc1ccc(F)cc1)Nc1nnc(Sc2ncnc3sc4c(c23)CCN(Cc2ccccc2)C4)s1 [Compound 11f, 1-(5-((7-benzyl-5,6,7,8-tetrahydropyrido[4',3':4,5]thieno[2,3-d]pyrimidin-4-yl)thio)-1,3,4-thiadiazol-2-yl)-3-(4-fluorophenyl)urea] | 47.98 ± 0.27 | –
